The test deals with T1, Human complement C1s enzyme (Homo sapiens, UniProt P09871).
T1 construct: purified from human serum, Complement Technology, Inc; purchased Complement Technology, Inc; host or cells: human serum (plasma-derived native protein)
T1 sequence (P09871 438-688 limits assumed): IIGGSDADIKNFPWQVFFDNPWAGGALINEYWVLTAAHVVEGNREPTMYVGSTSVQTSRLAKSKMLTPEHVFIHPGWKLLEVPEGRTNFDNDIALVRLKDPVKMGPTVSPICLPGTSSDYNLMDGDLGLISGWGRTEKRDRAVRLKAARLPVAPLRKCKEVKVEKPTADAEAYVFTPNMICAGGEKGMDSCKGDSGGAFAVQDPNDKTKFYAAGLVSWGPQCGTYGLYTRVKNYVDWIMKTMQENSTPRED
T1 sequence (P09871 16-437 partner limits assumed): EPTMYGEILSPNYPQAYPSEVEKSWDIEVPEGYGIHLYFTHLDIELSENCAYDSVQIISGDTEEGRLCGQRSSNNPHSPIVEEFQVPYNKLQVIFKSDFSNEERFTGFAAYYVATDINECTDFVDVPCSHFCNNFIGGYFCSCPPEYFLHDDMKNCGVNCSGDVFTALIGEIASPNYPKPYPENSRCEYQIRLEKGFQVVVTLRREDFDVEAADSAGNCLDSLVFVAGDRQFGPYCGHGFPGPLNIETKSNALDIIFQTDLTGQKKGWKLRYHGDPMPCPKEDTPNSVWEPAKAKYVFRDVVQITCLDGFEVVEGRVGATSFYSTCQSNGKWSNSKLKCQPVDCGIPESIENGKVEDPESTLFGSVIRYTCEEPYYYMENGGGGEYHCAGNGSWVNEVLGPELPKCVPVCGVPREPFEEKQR
Description: Human C1s enzyme assay. The test is classed as biochemical. To be noted: human complement C1s enzyme 1.16 nM, substrate Z-L-Lys-SBzl, A405; read-out: IC50 (Stars). The gist of the method:
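Thioesterase activity followed colorimetrically (DTNB, A405, 30-s reads) using 100 μM Z-L-Lys-SBzl substrate. Enzyme, human serum-derived C1s at 1.16 nM final, was incubated with test compound for 5 min, room temperature, pH 7.5 Tris buffer with 1 M NaCl. Rate-versus-concentration data fitted by nonlinear regression for IC50.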

With `O=C(Cn1c(-c2ccccc2)cnc(NC(=O)c2ccc3c(c2)-c2ccccc2C3(F)F)c1=O)NCc1cc2cnccc2[nH]1` [Compound 179, N-(4-(2-(((1H-pyrrolo[3,2-c]pyridin-2-yl)methyl)amino)-2-oxoethyl)-3-oxo-5-phenyl-3,4-dihydropyrazin-2-yl)-9,9-difluoro-9H-fluorene-3-carbox-amide], the IC50 was less than 100 nM.
As for `CC1(c2ccc(CCCNc3cnc(-c4ccccc4)n(CC(=O)NCc4cc5cnccc5[nH]4)c3=O)cc2)COC1` [Compound 180, N-((1H-pyrrolo[3,2-c]pyridine-2-yl)methyl)-2-(5-((3-(4-(3-methyloxetan-3-yl)phenyl)propyl)amino)-6-oxo-2-phenylpyrimidin-1(6H)-yl)acetamide], the IC50 is less than 100 nM.
As to `O=C(Cn1c(-c2ccccc2)ncc(N2Cc3ccccc3C2)c1=O)NCc1cc2cnccc2[nH]1` [Compound 184, N-((1H-pyrrolo[3,2-c]pyridine-2-yl)methyl)-2-(5-(isoindolin-2-yl)-6-oxo-2-phenylpyrimidin-1(6H)-yl)acetamide], the IC50 was greater than 1000 nM.
On to `CO[C@@H]1CO[C@H]2[C@@H]1OC[C@H]2Oc1ccc(-c2ncc(NCCCc3ccccc3)c(=O)n2CC(=O)NCc2cc3cnccc3[nH]2)cc1` [Compound 189, N-((1H-pyrrolo[3,2-c]pyridine-2-yl)methyl)-2-(2-(4-(((3R,3aR,6R,6aR)-6-methoxyhexahydrofuro[3,2-b]furan-3-yl)oxy)phenyl)-6-oxo-5-((3-phenylpropyl)amino)pyrimidin-1(6H)-yl)acetamide], for which the IC50 is less than 100 nM.
As to `O=C(Cn1c(-c2ccccc2)ncc(NCCCO[C@@H]2CO[C@H]3[C@@H]2OC[C@H]3O)c1=O)NCc1cc2cnccc2[nH]1` [Compound 190, N-((1H-pyrrolo[3,2-c]pyridine-2-yl)methyl)-2-(5-((3-(((3R,3aR,6R,6aR)-6-hydroxyhexahydrofuro[3,2-b]furan-3-yl)oxy)propyl)amino)-6-oxo-2-phenylpyrimidin-1(6H)-yl)acetamide], the IC50 is less than 100 nM.
As for `CO[C@@H]1CO[C@H]2[C@@H]1OC[C@H]2Oc1ccc(CCCNc2cnc(-c3ccccc3)n(CC(=O)NCc3cc4cnccc4[nH]3)c2=O)cc1` [Compound 192, N-((1H-pyrrolo[3,2-c]pyridine-2-yl)methyl)-2-(5-((3-(4-(((3R,3aR,6R,6aR)-6-methoxyhexahydrofuro[3,2-b]furan-3-yl)oxy)phenyl)propyl)amino)-6-oxo-2-phenylpyrimidin-1(6H)-yl)acetamide], the IC50 is less than 100 nM.
Take `O=C(Cn1c(-c2ccccc2)ncc(NCCCc2ccc(OC3CS(=O)(=O)C3)cc2)c1=O)NCc1cc2cnccc2[nH]1` [Compound 193, N-((1H-pyrrolo[3,2-c]pyridine-2-yl)methyl)-2-(5-((3-(4-((1,1-dioxidothietan-3-yl)oxy)phenyl)propyl)amino)-6-oxo-2-phenylpyrimidin-1(6H)-yl) acetamide]: the 50% inhibitory concentration (IC50) was less than 100 nM.
In the case of `CS(=N)(=O)c1ccc(-c2ncc(NCCCc3ccccc3)c(=O)n2CC(=O)NCc2cc3cnccc3[nH]2)cc1` (stereo not shown) [Compound 200, N-((1H-pyrrolo[3,2-c]pyridine-2-yl)methyl)-2-(2-(4-(S-methylsulfonimidoyl)phenyl)-6-oxo-5-((3-phenylpropyl)amino)pyrimidin-1(6H)-yl)acetamide], the half-inhibitory concentration (IC50) was less than 100 nM.
Regarding `O=C(Cn1c(-c2ccccc2)ncc(NC(=O)c2ccc3c(c2)oc2ccccc23)c1=O)NCc1cc2cnccc2[nH]1` [Compound 203, N-(1-(2-(((1H-pyrrolo[3,2-c]pyridin-2-yl)methyl)amino)-2-oxoethyl)-6-oxo-2-phenyl-1,6-dihydropyrimidin-5-yl)dibenzo [b,d]furan-3-carboxamide], the concentration for half-maximal inhibition (IC50) is less than 100 nM.
Then `O=C(Cn1c(-c2ccccc2)ncc(NC(=O)c2ccc3c(c2)C(F)(F)c2ccccc2-3)c1=O)NCc1cc2cnccc2[nH]1` [Compound 204, N-(1-(2-(((1H-pyrrolo[3,2-c]pyridin-2-yl)methyl)amino)-2-oxoethyl)-6-oxo-2-phenyl-1,6-dihydropyrimidin-5-yl)-9,9-difluoro-9H-fluorene-2-carbox-amide], with less than 100 nM; and `O=C(Cn1c(-c2ccccc2)ncc(NC(=O)c2coc(-c3cccc(F)c3)n2)c1=O)NCc1cc2cnccc2[nH]1` [Compound 205, N-(1-(2-(((1H-pyrrolo[3,2-c]pyridine-2-yl)methyl)amino)-2-oxoethyl)-6-oxo-2-phenyl-1,6-dihydropyrimidin-5-yl)-2-(3-fluorophenyl)oxazole-4-carboxamide], with less than 100 nM.
Turning to `O=C(Cn1c(-c2ccccc2)ncc(NC(=O)c2ccc(-c3ccccc3)o2)c1=O)NCc1cc2cnccc2[nH]1` [Compound 206, N-(1-(2-(((1H-pyrrolo[3,2-c]pyridin-2-yl)methyl)amino)-2-oxoethyl)-6-oxo-2-phenyl-1,6-dihydropyrimidin-5-yl)-5-phen-ylfuran-2-carboxamide], the IC50 is less than 100 nM.
Turning to `O=C(Cc1cc(NCCCc2ccccc2)cnc1-c1ccccc1)NCc1cc2cnccc2[nH]1` [Compound 207, N-((1H-pyrrolo[3,2-c]pyridine-2-yl)methyl)-2-(2-phenyl-5-((3-phenylpropyl)amino)146yridine-3-yl)acetamide], the IC50 was greater than 1000 nM.
In the case of `O=C(Cn1c(-c2ccccc2)ncc(NC(=O)c2nc(-c3ccccc3)cs2)c1=O)NCc1cc2cnccc2[nH]1` [Compound 208, N-(1-(2-(((1H-pyrrolo[3,2-c]pyridin-2-yl)methyl)amino)-2-oxoethyl)-6-oxo-2-phenyl-1,6-dihydropyrimidin-5-yl)-4-phen-ylthiazole-2-carboxamide], the IC50 is less than 100 nM.
Regarding `O=C(Cn1c(-c2ccccc2)ncc(NC(=O)c2csc(-c3ccccc3)n2)c1=O)NCc1cc2cnccc2[nH]1` [Compound 209, N-(1-(2-(((1H-pyrrolo[3,2-c]pyridin-2-yl)methyl)amino)-2-oxoethyl)-6-oxo-2-phenyl-1,6-dihydropyrimidin-5-yl)-2-phen-ylthiazole-4-carboxamide], the IC50 is less than 100 nM.
Consider `O=C(Cn1c(-c2ccccc2)ncc(NC(=O)c2cc(-c3ccccc3)cs2)c1=O)NCc1cc2cnccc2[nH]1` [Compound 210, N-(1-(2-(((1H-pyrrolo[3,2-c]pyridin-2-yl)methyl)amino)-2-oxoethyl)-6-oxo-2-phenyl-1,6-dihydropyrimidin-5-yl)-4-phen-ylthiophene-2-carboxamide], for which the IC50 was less than 100 nM.
`COc1cccc(-c2nc(C(=O)Nc3cnc(-c4ccccc4)n(CC(=O)NCc4cc5cnccc5[nH]4)c3=O)co2)c1` [Compound 211, N-(1-(2-(((1H-pyrrolo[3,2-c]pyridine-2-yl)methyl)amino)-2-oxoethyl)-6-oxo-2-phenyl-1,6-dihydropyrimidin-5-yl)-2-(3-methoxyphenyl)oxazole-4-carboxamide]: the IC50 was less than 100 nM.
Then `O=C(Cn1c(-c2ccccc2)ncc(Nc2ccc(F)cc2)c1=O)NCc1cc2cnccc2[nH]1` [Compound 212, N-((1H-pyrrolo[3,2-c]pyridin-2-yl)methyl)-2-(5-((4-fluoro-phenyl)amino)-6-oxo-2-phen-ylpyrimidin-1(6H)-yl)acet-amide], with less than 100 nM; and `COc1ccccc1-c1ccc(C(=O)Nc2cnc(-c3ccccc3)n(CC(=O)NCc3cc4cnccc4[nH]3)c2=O)cc1` [Compound 213, N-(1-(2-(((1H-pyrrolo[3,2-c]pyridin-2-yl)methyl)amino)-2-oxoethyl)-6-oxo-2-phenyl-1,6-dihydropyrimidin-5-yl)-2′-methoxy-[1,1′-biphenyl]-4-carboxamide], with less than 100 nM.

(Values after patent publication US20260184707A1, “PHARMACEUTICAL COMPOUNDS FOR THE TREATMENT OF COMPLEMENT MEDIATED DISORDERS” (ALEXION PHARMACEUTICALS, INC., priority 2022, published 2026).)
